According to PubChem BioAssay AID508:

Biological target: S-adenosylmethionine synthase isoform type-2 (Homo sapiens) (UniProt P31153)
Test: PubChem AID 508
Details: recombinant MAT2A, DSF SYPRO orange Tm shift; at 10 µM; protein 2 µM; buffer 25 mM HEPES; pH 7.5; 75mM NaCl; 100uM ATPgammaS; Adenosine 5'-[gamma-thio]triphosphate tetralithium salt; hits give high values

Sequence of S-adenosylmethionine synthase isoform type-2 (Homo sapiens) (P31153 whole entry, looked up, canonical isoform): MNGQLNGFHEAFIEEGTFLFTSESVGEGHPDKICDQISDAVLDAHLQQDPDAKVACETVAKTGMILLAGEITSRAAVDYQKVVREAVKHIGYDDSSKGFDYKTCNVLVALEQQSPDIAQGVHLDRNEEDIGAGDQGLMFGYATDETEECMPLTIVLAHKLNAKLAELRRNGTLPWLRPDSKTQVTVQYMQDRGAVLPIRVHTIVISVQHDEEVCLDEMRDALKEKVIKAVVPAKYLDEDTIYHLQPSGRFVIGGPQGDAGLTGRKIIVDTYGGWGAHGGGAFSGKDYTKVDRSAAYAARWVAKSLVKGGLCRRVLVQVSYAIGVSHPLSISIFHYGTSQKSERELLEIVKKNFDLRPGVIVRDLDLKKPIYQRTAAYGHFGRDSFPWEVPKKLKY

**Q.** With `CSCCC(N)C(=O)O` (stereo unspecified) as the compound, how does the Tm shift read?
**A.** 2.1 Celsius
